Measurements reported in ChEMBL document CHEMBL4725325, “Synthesis and biological evaluation of parthenolide derivatives with reduced toxicity as potential inhibitors of the NLRP3 inflammasome” (Bioorg Med Chem Lett, 2020).
The source made the active and inactive calls. No cut-off for these calls is given here.

Legend:
[1] = Cytotoxicity against human HEK-293T cells; type: cell-based; conditions: read-out: TC50 (the source's name)
[2] = target: T1, NACHT, LRR and PYD domains-containing protein 3 (Homo sapiens, UniProt Q96P20); experiment: Inhibition of NLRP3 inflammasome in human primary glial cells assessed as reduction in LPS-induced IL-1beta release; type: cell-based
[3] = Therapeutic index, ratio of IC50 for cytotoxicity against mouse J774.A1 cells to IC50 for antiinflammatory activity in mouse J774.A1 cells; type: toxicity, cell-based
[4] = target: NACHT, LRR and PYD domains-containing protein 3 (Mus musculus, UniProt Q8R4B8); experiment: Inhibition of NLRP3 inflammasome in mouse J774.A1 cells assessed as reduction in LPS-induced IL-1beta release; type: cell-based
[5] = Cytotoxicity against mouse J774.A1 cells; type: cell-based; conditions: read-out: TC50 (the source's name)
[6] = target: T1, NACHT, LRR and PYD domains-containing protein 3; experiment: Inhibition of NLRP3 inflammasome in human primary glial cells assessed as reduction in LPS-induced IL-1beta release at 1 to 10 uM; type: cell-based; conditions: dose microM 1-10
[7] = target: NACHT, LRR and PYD domains-containing protein 3 (Mus musculus) (UniProt Q8R4B8); experiment: Inhibition of NLRP3 inflammasome in mouse J774.A1 cells assessed as reduction in LPS-induced IL-1beta release at 1 to 10 uM; type: cell-based; conditions: dose microM 1-10
[8] = target: NACHT, LRR and PYD domains-containing protein 3 (Mus musculus) (UniProt Q8R4B8); experiment: Inhibition of NLRP3 inflammasome in mouse J774.A1 cells assessed as reduction in LPS-induced IL-1beta release at 10 uM in presence of PTL/MCL; type: cell-based
[9] = target: T1, NACHT, LRR and PYD domains-containing protein 3; experiment: Inhibition of NLRP3 inflammasome in human primary glial cells assessed as reduction in LPS-induced IL-1beta release at 10 uM in presence of PTL/MCL; type: cell-based; conditions: Primary neuron
[10] = target: T1, NACHT, LRR and PYD domains-containing protein 3; experiment: Inhibition of NLRP3 inflammasome in human primary glial cells assessed as reduction in LPS-induced IL-1beta release at 10 uM; type: cell-based; conditions: Primary neuron
[11] = target: NACHT, LRR and PYD domains-containing protein 3 (Mus musculus) (UniProt Q8R4B8); experiment: Inhibition of NLRP3 inflammasome in mouse J774.A1 cells assessed as reduction in LPS-induced IL-1beta release at 10 uM; type: cell-based
Mus musculus [12] = experiment: In vivo inhibition of NLRP3 in mouse assessed as reduction in LPS-induced IL-1beta release in serum at 30 mg/kg, po; type: functional, organism-based
Mus musculus [13] = experiment: In vivo inhibition of NLRP3 in mouse assessed as reduction in LPS-induced IL-1beta release in peritoneal fluid at 30 mg/kg, po; type: functional, organism-based
[14] = target: T1, NACHT, LRR and PYD domains-containing protein 3; experiment: Inhibition of NLRP3 inflammasome activation (unknown origin) assessed as reduction in IL-1beta by Western blot analysis; conditions: dose microM 0.2-5
[15] = target: T1, NACHT, LRR and PYD domains-containing protein 3; experiment: Inhibition of NLRP3 inflammasome activation (unknown origin) assessed as reduction in procaspase1 at 0.2 to 5 uM by Western blot analysis; conditions: dose microM 0.2-5
[16] = target: T1, NACHT, LRR and PYD domains-containing protein 3; experiment: Inhibition of NLRP3 inflammasome activation (unknown origin) assessed as reduction in proIL-1beta at 0.2 to 5 uM by Western blot analysis; conditions: dose microM 0.2-5
[17] = target: T1, NACHT, LRR and PYD domains-containing protein 3; experiment: Inhibition of NLRP3 inflammasome activation (unknown origin) assessed as reduction in caspase 1 p20 level by Western blot analysis; type: tissue-based; conditions: Primary neuron, dose microM 0.2-5
[18] = target: T1, NACHT, LRR and PYD domains-containing protein 3; experiment: Inhibition of NLRP3 inflammasome activation (unknown origin) assessed as reduction in ASC level at 0.2 to 5 uM by Western blot analysis; conditions: dose microM 0.2-5

NACHT, LRR and PYD domains-containing protein 3 (Mus musculus, UniProt Q8R4B8), sequence (Q8R4B8 whole entry, the tested form may be a part): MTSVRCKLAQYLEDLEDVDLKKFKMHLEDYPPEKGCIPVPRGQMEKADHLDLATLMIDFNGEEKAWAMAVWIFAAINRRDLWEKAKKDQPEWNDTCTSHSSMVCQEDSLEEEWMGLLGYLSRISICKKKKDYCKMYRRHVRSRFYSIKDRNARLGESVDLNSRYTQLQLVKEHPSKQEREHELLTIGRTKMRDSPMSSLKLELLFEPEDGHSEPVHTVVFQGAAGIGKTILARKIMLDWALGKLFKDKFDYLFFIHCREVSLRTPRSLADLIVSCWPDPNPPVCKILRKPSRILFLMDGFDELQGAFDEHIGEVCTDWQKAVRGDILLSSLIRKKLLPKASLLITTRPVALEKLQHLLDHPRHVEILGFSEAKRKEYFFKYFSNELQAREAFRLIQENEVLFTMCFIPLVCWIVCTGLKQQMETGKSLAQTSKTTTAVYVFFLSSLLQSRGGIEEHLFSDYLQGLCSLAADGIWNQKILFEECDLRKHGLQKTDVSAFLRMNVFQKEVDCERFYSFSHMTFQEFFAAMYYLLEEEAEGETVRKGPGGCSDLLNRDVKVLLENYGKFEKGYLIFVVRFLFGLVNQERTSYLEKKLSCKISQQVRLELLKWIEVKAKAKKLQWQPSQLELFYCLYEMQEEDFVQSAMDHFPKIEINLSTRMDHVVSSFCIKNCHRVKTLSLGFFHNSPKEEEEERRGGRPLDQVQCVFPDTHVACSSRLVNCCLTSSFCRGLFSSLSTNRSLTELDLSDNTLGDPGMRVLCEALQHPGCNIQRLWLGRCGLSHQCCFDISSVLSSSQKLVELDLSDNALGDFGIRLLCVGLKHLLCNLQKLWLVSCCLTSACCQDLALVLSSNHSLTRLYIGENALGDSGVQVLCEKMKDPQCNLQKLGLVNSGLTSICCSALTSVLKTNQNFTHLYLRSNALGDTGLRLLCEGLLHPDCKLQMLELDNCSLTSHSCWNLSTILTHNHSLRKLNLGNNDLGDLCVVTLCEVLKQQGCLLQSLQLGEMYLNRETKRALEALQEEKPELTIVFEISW
NACHT, LRR and PYD domains-containing protein 3 (Mus musculus), sequence (Q8R4B8 whole entry, the tested form may be a part): as above
T1 sequence (Q96P20 whole entry, the tested form may be a part): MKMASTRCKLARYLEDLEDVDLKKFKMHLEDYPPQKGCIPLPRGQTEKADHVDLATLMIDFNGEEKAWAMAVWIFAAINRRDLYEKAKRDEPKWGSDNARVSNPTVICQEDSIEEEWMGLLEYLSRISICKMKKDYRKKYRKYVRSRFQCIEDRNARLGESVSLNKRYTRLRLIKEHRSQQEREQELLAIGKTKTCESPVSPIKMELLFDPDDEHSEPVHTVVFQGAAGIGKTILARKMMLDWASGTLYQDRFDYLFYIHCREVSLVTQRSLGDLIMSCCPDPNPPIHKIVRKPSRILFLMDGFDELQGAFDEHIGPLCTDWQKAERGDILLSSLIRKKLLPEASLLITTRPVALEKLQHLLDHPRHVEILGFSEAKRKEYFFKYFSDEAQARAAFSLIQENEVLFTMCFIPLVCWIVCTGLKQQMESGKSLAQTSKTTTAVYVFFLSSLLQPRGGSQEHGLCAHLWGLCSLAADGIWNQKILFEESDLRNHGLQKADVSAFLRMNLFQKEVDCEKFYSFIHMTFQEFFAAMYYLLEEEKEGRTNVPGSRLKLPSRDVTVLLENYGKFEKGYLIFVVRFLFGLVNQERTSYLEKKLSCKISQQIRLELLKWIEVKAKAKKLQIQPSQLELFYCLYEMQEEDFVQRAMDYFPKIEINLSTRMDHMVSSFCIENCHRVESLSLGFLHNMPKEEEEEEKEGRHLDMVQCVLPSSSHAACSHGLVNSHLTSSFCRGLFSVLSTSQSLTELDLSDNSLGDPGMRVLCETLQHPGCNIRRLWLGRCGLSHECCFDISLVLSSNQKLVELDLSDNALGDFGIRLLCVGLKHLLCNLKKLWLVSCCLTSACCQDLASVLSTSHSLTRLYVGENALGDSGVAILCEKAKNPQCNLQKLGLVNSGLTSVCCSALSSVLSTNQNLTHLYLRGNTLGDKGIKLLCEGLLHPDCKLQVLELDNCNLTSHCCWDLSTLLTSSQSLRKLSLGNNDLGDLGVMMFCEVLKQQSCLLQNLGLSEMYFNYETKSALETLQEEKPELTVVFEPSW

SMILES	CC50 [1]	IC50 [2]	selectivity ratio [3]	IC50 [4]	CC50 [5]	inhibition [6]	inhibition [7]	also measured
C/C1=C\CC[C@]2(C)O[C@@H]2[C@H]2OC(=O)[C@@H](CN(C)CCCOc3no[n+]([O-])c3S(=O)(=O)c3ccccc3)[C@@H]2CC1	166 µM	2.2 µM	166	0.4 µM	66.6 µM			
C=C1C(=O)O[C@@H]2[C@H]3C(C)=CCC[C@]3(C)CC[C@@H]12						Dose-dependent effect	Dose-dependent effect	
Nc1nc2ccc(OC(F)(F)F)cc2s1								inhibition [8]: Active; inhibition [9]: Active; inhibition [10]: inactive; inhibition [11]: inactive
CC1=C2CC[C@@](C)(O)[C@@H]2[C@H]2OC(=O)[C@@H](CN(C)CCCOc3no[n+]([O-])c3S(=O)(=O)c3ccccc3)[C@@H]2CC1	106 µM	2.3 µM	140	0.49 µM	68.5 µM			
C=C1C(=O)O[C@@H]2[C@H]3O[C@@]3(C)CC/C=C(\C)CC[C@@H]12	29.9 µM	1.8 µM	10.2	1.4 µM	14.3 µM	Dose-dependent effect	Dose-dependent effect	inhibition (Mus musculus [12]): Active; inhibition (Mus musculus [13]): Active
C=C1CCC[C@]2(C)CC[C@H]3C(=C)C(=O)O[C@@H]3[C@@H]12						Dose-dependent effect	Dose-dependent effect	
C=C1C(=O)O[C@@H]2/C=C(\C)CC/C=C(\C)CC[C@@H]12							Dose-dependent effect	
C/C1=C\CC[C@]2(C)O[C@@H]2[C@H]2OC(=O)[C@@H](CN(C)CC(=O)Nc3nc4ccc(OC(F)(F)F)cc4s3)[C@@H]2CC1								inhibition [8]: Active; inhibition [9]: Active
CC1=C2CC[C@@](C)(O)[C@@H]2[C@H]2OC(=O)[C@@H](CN(C)CCOc3no[n+]([O-])c3S(=O)(=O)c3ccccc3)[C@@H]2CC1	56.5 µM	1.7 µM	119	0.5 µM	59.5 µM			
CC1=C2CC[C@@](C)(O)[C@@H]2[C@H]2OC(=O)[C@@H](CN(C)CC(=O)Nc3nc4ccc(OC(F)(F)F)cc4s3)[C@@H]2CC1								inhibition [8]: Active; inhibition [9]: Active
C/C1=C\CC[C@]2(C)O[C@@H]2[C@H]2OC(=O)[C@@H](CN(C)CCOc3no[n+]([O-])c3S(=O)(=O)c3ccccc3)[C@@H]2CC1	69.8 µM	1 µM	80.3	0.3 µM	24.1 µM			inhibition [14]: Dose-dependent effect; inhibition (Mus musculus [12]): Active; inhibition [15]: inactive; inhibition [16]: inactive; inhibition [17]: Dose-dependent effect; inhibition [18]: inactive; inhibition (Mus musculus [13]): Active
C=C1C(=O)O[C@H]2[C@H]1CCC(C)=C1CC[C@@](C)(O)[C@@H]12 [MICHELIOLIDE]	51.7 µM	5.9 µM	9.5	2.3 µM	21.9 µM	Dose-dependent effect	Dose-dependent effect	
O=S(=O)(c1ccccc1)c1no[n+]([O-])c1S(=O)(=O)c1ccccc1	22.4 µM	1.9 µM	12.2	0.93 µM	11.4 µM			
